Measured values taken from PMC7922706, “New Inhibitory Effects of Cilnidipine on Microglial P2X7 Receptors and IL-1β Release: An Involvement in its Alleviating Effect on Neuropathic Pain” (Cells, 2021).
Read-outs that look alike come from different tables or passages of the source.

Biological target: T1, rat P2X7R (Rattus norvegicus, UniProt Q64663)
T1 construct: gene P2rx7; rP2X7R (NM_019256) stably expressed in 1321N1 cells
T1 sequence (Q64663 1-595): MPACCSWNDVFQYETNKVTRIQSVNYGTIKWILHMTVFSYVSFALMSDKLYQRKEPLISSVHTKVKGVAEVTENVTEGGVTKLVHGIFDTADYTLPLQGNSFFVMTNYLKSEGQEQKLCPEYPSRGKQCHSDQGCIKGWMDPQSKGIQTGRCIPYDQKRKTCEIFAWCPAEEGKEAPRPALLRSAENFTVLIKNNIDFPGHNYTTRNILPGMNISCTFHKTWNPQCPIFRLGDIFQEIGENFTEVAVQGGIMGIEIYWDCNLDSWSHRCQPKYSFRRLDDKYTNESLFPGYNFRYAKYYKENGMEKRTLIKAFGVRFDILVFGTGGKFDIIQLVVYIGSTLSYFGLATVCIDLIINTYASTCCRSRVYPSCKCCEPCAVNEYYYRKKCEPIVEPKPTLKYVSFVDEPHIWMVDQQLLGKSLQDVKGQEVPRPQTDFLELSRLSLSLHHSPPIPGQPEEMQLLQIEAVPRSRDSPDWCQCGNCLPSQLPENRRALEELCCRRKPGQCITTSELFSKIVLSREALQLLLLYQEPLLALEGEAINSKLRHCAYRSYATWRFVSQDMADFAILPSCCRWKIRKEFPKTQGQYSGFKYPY
Test: single-cell Fura-2 Ca2+ imaging, BzATP-stimulated rP2X7R-1321N1 cells
Assay type: cell-based

| Structure (SMILES) | IC50 (read-out: IC50) | IC50 |
| --- | --- | --- |
| COCCOC(=O)C1=C(C)NC(C)=C(C(=O)OC/C=C/c2ccccc2)C1c1cccc([N+](=O)[O-])c1 (racemic) [CNP, 2-Methoxyethyl(E)-3-phenyl-2-propen-1-yl(±)-1,4-dihydro-2,6-dimethyl-4-(3-nitrophenyl)pyridine-3,5-dicarboxylate] | 130 nM |  |
| COc1cc(C(=O)NS(=O)(=O)c2ccccc2C)ccc1Cc1cn(C)c2ccc(NC(=O)OC3CCCC3)cc12 [ZFK, zafirlukast] | 220 nM |  |
| CCc1oc2ccccc2c1C(=O)c1cc(Br)c(O)c(Br)c1 [BBR, benzbromarone] |  | 250 nM |
